Assays:
Type in all cases: in vivo
[1] = tested on: Italian ryegrass (Lolium multiflorum); test: Test B pre-/postemergence plant response; conditions: for Ryegrass, Italian plant response rating: 0 to 100 scale (0 no effect, 100 complete control)
Text: (§1) Seeds of plant species selected from bamyardgrass (Echinochloa crus-galli), kochia (Kochia scoparia), ragweed (common ragweed, Ambrosia elatior), Italian ryegrass (Lolium multiflorum), large (Lg) crabgrass (Digitaria sanguinalis), giant foxtail (Setaria faberii), momingglory (Ipomoea spp.), pigweed (Amaranthus retroflexus), velvetleaf (Abutilon theophrasti), wheat (Triticum aestivum), and corn (Zea mays) were planted into a blend of loam soil and sand and treated preemergence with a directed soil spray using test chemicals formulated in a non-phytotoxic solvent mixture which included a surfactant. At the same time, plants selected from these crop and weed species and also blackgrass (Alopecurus myosuroides), and galium (catchweed bedstraw, Galium aparine) were planted in pots containing the same blend of loam soil and sand and treated with postemergence applications of test chemicals formulated in the same manner. Plants ranged in height from 2 to 10 cm and were in the one- to two-leaf stage for the postemergence treatment. Treated plants and untreated controls were maintained in a greenhouse for approximately 10 days, after which time all treated plants were compared to untreated controls and visually evaluated for injury. Plant response ratings, summarized in Table B, are based on a 0 to 100 scale where 0 is no effect and 100 is complete control. A dash (-) response means no test result.

[2] = tested on: barnyardgrass (Echinochloa crus-galli); test: Test B pre-/postemergence plant response; conditions: for Barnyardgrass plant response rating: 0 to 100 scale (0 no effect, 100 complete control)
Text: as §1

corn (Zea mays) = test: Test B pre-/postemergence plant response; conditions: 0 to 100 scale, 0 no effect, 100 complete control
Text: as §1

[3] = tested on: giant foxtail (Setaria faberii); test: Test B pre-/postemergence plant response; conditions: for Foxtail, Giant plant response rating: 0 to 100 scale (0 no effect, 100 complete control)
Text: as §1

kochia (Kochia scoparia) = test: Test B pre-/postemergence plant response; conditions: for Kochia plant response rating: 0 to 100 scale (0 no effect, 100 complete control)
Text: as §1

[4] = tested on: pigweed (Amaranthus retroflexus); test: Test B pre-/postemergence plant response; conditions: for Pigweed plant response rating: 0 to 100 scale (0 no effect, 100 complete control)
Text: as §1

[5] = tested on: ragweed (common ragweed, Ambrosia elatior); test: Test B pre-/postemergence plant response; conditions: for Ragweed plant response rating: 0 to 100 scale (0 no effect, 100 complete control)
Text: as §1

[6] = tested on: wheat (Triticum aestivum); test: Test B pre-/postemergence plant response; conditions: 0 to 100 scale, 0 no effect, 100 complete control
Text: as §1

[7] = tested on: blackgrass (Alopecurus myosuroides); test: Test B postemergence plant response; conditions: 0 to 100 scale, 0 no effect, 100 complete control
Procedure, shortened: (§2)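 Visual injury rating, 0–100 (0 = no effect, 100 = complete control), vs untreated controls ~10 days after postemergence spray; greenhouse; potted loam soil/sand; plants 2–10 cm, 1–2 leaf stage.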

[8] = tested on: galium (catchweed bedstraw, Galium aparine); test: Test B postemergence plant response; conditions: 0 to 100 scale, 0 no effect, 100 complete control
Procedure, shortened: as §2

[9] = tested on: barnyardgrass (Echinochloa crus-galli); test: Test C flooded paddy test plant response; conditions: Flood, 250 g ai/ha; scale of 0 to 100 where 0 is no effect and 100 is complete control; 13 to 15 days
Description: (§3) Plant species in the flooded paddy test selected from rice (Oryza sativa), small-flower umbrella sedge (Cyperus difformis), ducksalad (Heteranthera limosa), and bamyardgrass (Echinochloa crus-galli) were grown to the 2-leaf stage for testing. At time of treatment, test pots were flooded to 3 cm above the soil surface, treated by application of test compounds directly to the paddy water, and then maintained at that water depth for the duration of the test. Treated plants and controls were maintained in a greenhouse for 13 to 15 days, after which time all species were compared to controls and visually evaluated. Plant response ratings, summarized in Table C, are based on a scale of 0 to 100 where 0 is no effect and 100 is complete control. A dash (-) response means no test result.

[10] = tested on: ducksalad (Heteranthera limosa); test: Test C flooded paddy test plant response; conditions: Flood, 250 g ai/ha; scale of 0 to 100 where 0 is no effect and 100 is complete control; 13 to 15 days
Description: as §3

rice (Oryza sativa) = test: Test C flooded paddy test plant response; conditions: Flood, 250 g ai/ha; scale of 0 to 100 where 0 is no effect and 100 is complete control; 13 to 15 days
Description: as §3

[11] = tested on: small-flower umbrella sedge (Cyperus difformis); test: Test C flooded paddy test plant response; conditions: Flood, 250 g ai/ha; scale of 0 to 100 where 0 is no effect and 100 is complete control; 13 to 15 days
Description: as §3

[12] = 31 g ai/ha, Postemergence, 0 to 100 scale, 0 no effect, 100 complete control
[13] = 125 g ai/ha, postemergence, 0 to 100 scale, 0 no effect, 100 complete control
[14] = Preemergence, 125 g ai/ha, 0 to 100 scale where 0 is no effect and 100 is complete control

SMILES | Plant response rating, Ryegrass, Italian [1, 12] | Plant response rating, Ryegrass, Italian [1, 13] | Ryegrass, Italian plant response rating ([1]; Preemergence, 31 g ai/ha) | Plant response rating, Ryegrass, Italian [1, 14] | Plant response rating, Barnyardgrass [2, 12] | Plant response rating, Barnyardgrass [2, 13] | Barnyardgrass plant response rating ([2]; Preemergence, 31 g ai/ha) | Plant response rating, Barnyardgrass [2, 14] | Plant response rating, Corn (corn (Zea mays); 31 g ai/ha, Postemergence) | Plant response rating, Corn (corn (Zea mays); 125 g ai/ha, postemergence) | Plant response rating, Foxtail, Giant [3, 12] | Plant response rating, Foxtail, Giant [3, 13] | Foxtail, Giant plant response rating ([3]; Preemergence, 31 g ai/ha) | Plant response rating, Foxtail, Giant [3, 14] | Plant response rating, Kochia (kochia (Kochia scoparia); [12]) | Plant response rating, Kochia (kochia (Kochia scoparia); [13]) | Kochia plant response rating (kochia (Kochia scoparia); Preemergence, 31 g ai/ha) | Plant response rating, Kochia (kochia (Kochia scoparia); [14]) | Plant response rating, Pigweed [4, 12] | Plant response rating, Pigweed [4, 13] | further results
CC(C)n1nc(C(F)(F)F)cc1-c1c(C#N)cccc1Oc1ncc(Cl)cn1 [Compound 90] | 0 | 0 | 0 | 0 | 0 | 0 | 0 | 0 | 0 | 0 | 0 | 0 | 0 | 0 | 0 | 10 | 0 | 0 | 0 | 10 | Pigweed plant response rating ([4]; Preemergence, 31 g ai/ha): 0; Plant response rating, Pigweed [4, 14]: 20; Plant response rating, Ragweed [5, 12]: 0; Plant response rating, Ragweed [5, 13]: 0; Ragweed plant response rating ([5]; Preemergence, 31 g ai/ha): 0; Plant response rating, Ragweed [5, 14]: 0; Plant response rating, Wheat ([6]; 31 g ai/ha, Postemergence): 0; Plant response rating, Wheat ([6]; 125 g ai/ha, postemergence): 0; Plant response rating, Blackgrass ([7]; 31 g ai/ha, Postemergence): 0; Plant response rating, Blackgrass ([7]; 125 g ai/ha, postemergence): 0; Plant response rating, Galium ([8]; 31 g ai/ha, Postemergence): 0; Plant response rating, Galium ([8]; 125 g ai/ha, postemergence): 30; Barnyardgrass plant response rating [9]: 0; Ducksalad plant response rating [10]: 0; Rice plant response rating (rice (Oryza sativa)): 0; Sedge, Umbrella plant response rating [11]: 0
Clc1cnc(Oc2ccccc2-c2cc(C(Cl)Cl)on2)nc1 [Compound 97] | 0 | 0 | 0 | 0 | 0 | 20 | 0 | 0 | 0 | 20 | 0 | 30 | 10 | 30 | 60 | 90 | 0 | 30 | 60 | 90 | Pigweed plant response rating ([4]; Preemergence, 31 g ai/ha): 20; Plant response rating, Pigweed [4, 14]: 50; Plant response rating, Ragweed [5, 12]: 20; Plant response rating, Ragweed [5, 13]: 50; Ragweed plant response rating ([5]; Preemergence, 31 g ai/ha): 0; Plant response rating, Ragweed [5, 14]: 0; Plant response rating, Wheat ([6]; 31 g ai/ha, Postemergence): 0; Plant response rating, Wheat ([6]; 125 g ai/ha, postemergence): 0; Plant response rating, Blackgrass ([7]; 31 g ai/ha, Postemergence): 0; Plant response rating, Blackgrass ([7]; 125 g ai/ha, postemergence): 0; Plant response rating, Galium ([8]; 31 g ai/ha, Postemergence): 10; Plant response rating, Galium ([8]; 125 g ai/ha, postemergence): 50; Barnyardgrass plant response rating [9]: 0; Ducksalad plant response rating [10]: 0; Rice plant response rating (rice (Oryza sativa)): 0; Sedge, Umbrella plant response rating [11]: 50
COc1cccc(Oc2ncc(Cl)cn2)c1-c1cc(C(F)F)no1 [Compound 103] | 0 | 10 | 0 | 0 | 0 | 40 | 0 | 50 | 0 | 30 | 40 | 70 | 50 | 90 | 0 | 30 | 0 | 10 | 30 | 80 | Pigweed plant response rating ([4]; Preemergence, 31 g ai/ha): 100; Plant response rating, Pigweed [4, 14]: 100; Plant response rating, Ragweed [5, 12]: 20; Plant response rating, Ragweed [5, 13]: 60; Ragweed plant response rating ([5]; Preemergence, 31 g ai/ha): 0; Plant response rating, Ragweed [5, 14]: 10; Plant response rating, Wheat ([6]; 31 g ai/ha, Postemergence): 0; Plant response rating, Wheat ([6]; 125 g ai/ha, postemergence): 0; Plant response rating, Blackgrass ([7]; 31 g ai/ha, Postemergence): 30; Plant response rating, Blackgrass ([7]; 125 g ai/ha, postemergence): 90; Plant response rating, Galium ([8]; 31 g ai/ha, Postemergence): 90; Plant response rating, Galium ([8]; 125 g ai/ha, postemergence): 100; Barnyardgrass plant response rating [9]: 60; Ducksalad plant response rating [10]: 40; Rice plant response rating (rice (Oryza sativa)): 30; Sedge, Umbrella plant response rating [11]: 80
COc1cccc(Oc2ncc(Cl)cn2)c1-c1cc(C(F)(F)F)on1 [Compound 105] | 0 | 10 | 0 | 20 | 10 | 70 | 20 | 90 | 10 | 20 | 40 | 80 | 70 | 100 | 30 | 70 | 0 | 10 | 90 | 100 | Pigweed plant response rating ([4]; Preemergence, 31 g ai/ha): 100; Plant response rating, Pigweed [4, 14]: 100; Plant response rating, Ragweed [5, 12]: 10; Plant response rating, Ragweed [5, 13]: 30; Ragweed plant response rating ([5]; Preemergence, 31 g ai/ha): 0; Plant response rating, Ragweed [5, 14]: 0; Plant response rating, Wheat ([6]; 31 g ai/ha, Postemergence): 0; Plant response rating, Wheat ([6]; 125 g ai/ha, postemergence): 10; Plant response rating, Blackgrass ([7]; 31 g ai/ha, Postemergence): 70; Plant response rating, Blackgrass ([7]; 125 g ai/ha, postemergence): 100; Plant response rating, Galium ([8]; 31 g ai/ha, Postemergence): 70; Plant response rating, Galium ([8]; 125 g ai/ha, postemergence): 100; Barnyardgrass plant response rating [9]: 45; Ducksalad plant response rating [10]: 40; Rice plant response rating (rice (Oryza sativa)): 35; Sedge, Umbrella plant response rating [11]: 70
Cc1nnc(-c2ccccc2Oc2ncc(Cl)cn2)o1 [Compound 106] | 0 | 0 | 0 | 0 | 0 | 0 | 0 | 0 | 0 | 0 | 0 | 0 | 0 | 0 | 0 | 0 | 0 | 0 | 0 | 0 | Pigweed plant response rating ([4]; Preemergence, 31 g ai/ha): 0; Plant response rating, Pigweed [4, 14]: 0; Plant response rating, Ragweed [5, 12]: 0; Plant response rating, Ragweed [5, 13]: 0; Ragweed plant response rating ([5]; Preemergence, 31 g ai/ha): 0; Plant response rating, Ragweed [5, 14]: 0; Plant response rating, Wheat ([6]; 31 g ai/ha, Postemergence): 0; Plant response rating, Wheat ([6]; 125 g ai/ha, postemergence): 0; Plant response rating, Blackgrass ([7]; 31 g ai/ha, Postemergence): 0; Plant response rating, Blackgrass ([7]; 125 g ai/ha, postemergence): 0; Plant response rating, Galium ([8]; 31 g ai/ha, Postemergence): 0; Plant response rating, Galium ([8]; 125 g ai/ha, postemergence): 0; Barnyardgrass plant response rating [9]: 0; Ducksalad plant response rating [10]: 0; Rice plant response rating (rice (Oryza sativa)): 0; Sedge, Umbrella plant response rating [11]: 0
